Test [1] has as its system alveolar stem/progenitor cells. Nature of the test: Transwell migration assay. The settings on record: for migration / recruitment of alveolar stem/progenitor cells: negative control serum-free medium, positive control DMEM with 15% FBS. The class given is cell-based, human.
Method: Transwell migration assay was performed to determine PDGF's ability to recruit alveolar stem/progenitor cells in a dose-response manner.
The subject of test [2] is alveolar stem/progenitor cells. To be noted: 15 μM; chemically defined medium, calcein AM label.

“Also recorded” adds a separate entry of the source.

In the case of platelet-derived growth factor [PDGF], the “migration / recruitment of alveolar stem/progenitor cells” value in test [1] (Transwell migration) is reported as “induces robust, dose-dependent migration; also recorded: cell migration was shown; also recorded: induced dose-dependent migration”. Also, in test [1] (tested at 10 ng/ml, 25 ng/ml and 50 ng/ml), the “PDGF concentration at which highest cell migration was observed” value was 50 ng/mL.

On to `C[S+]([O-])CCCCN=C=S` (stereo not shown) [sulforaphane], for which the capillary tubular formation entry in test [2] was “blocked”.

In the case of “PDGF-AB: PDGF isoform composed of one A and one B chain”, the “migration / recruitment of alveolar stem/progenitor cells” value in test [1] (Transwell migration) is recorded as “resulted in cell migration”.

As for “PDGF-AA: PDGF isoform composed of two A chains”, the “migration / recruitment of alveolar stem/progenitor cells” value in test [1] (Transwell migration) is “resulted in cell migration”.

Regarding “PDGF-BB: PDGF isoform composed of two B chains”, the “chemoattractant efficacy compared among PDGF isoforms” value in test [1] (Transwell migration, compared with other PDGF isoforms and positive control 15% FBS) is listed as “most potent chemoattractant among all PDGF isoforms; also recorded: most robust efficacy, which was equal to positive control group with 15% fetal bovine serum; also recorded: higher rates of cell migration”. Further, the “migration / recruitment of alveolar stem/progenitor cells” value in test [1] (Transwell migration) is “induces robust, dose-dependent migration; also recorded: resulted in cell migration”.

The values are drawn from patent publication US9603899B2, “PDGF induced cell homing” (The Trustees of Columbia University in the City of New York, priority 2010, dated 2017).
